Assay results: patent US5300668A, “Certain esters of 1-(4-X-methylphenyl)cyclopent-3-ene-1-carboxylic acid, wherein X is a trialkylsilyloxy, bromo or hydroxy group, as intermediates” (Pfizer Inc., priority 1993, dated 1994)
pIC50: −log10 of the molar value.

Experiments:
mean arterial pressure = assay: in vivo blood pressure lowering in low sodium diet, furosemide-treated rats; settings: oral or parenteral dosing; sodium-depleted Sprague-Dawley rats
Experimental: The ability of the compounds of the invention to lower blood pressure in mammals was determined by the following in vivo protocol. Sprague-Dawley rats are placed on a low sodium diet (Purina Labs, 0.07% sodium) for 15 days. On days 11 and 13 of this period, the rats are given furosemide (Lasix, 8 mg/kg, i.m.). On day 13, the animals are anesthetized with a pentobarbital-chloral hydrate mixture (30 mg/kg pentobarbital sodium and 10 mg/kg chloral hydrate, i.p.) and the carotid artery and jugular vein are cannulated using PE50 tubing (Clay-Adams). After a 24 hour recovery period, the animals are injected on day 14 with Lasix (10 mg/kg, i.m.) and are placed in plexiglass chambers for blood pressure recording. […] When possible, blood pressure is also checked after 24 hours. According to this protocol, the compound of the invention is effective in lowering mean arterial pressure at oral dosages from about 0.1 mg/kg to about 30 mg/kg, and at parenteral dosages from about 0.01 mg/kg to about 10 mg/kg, with a duration of action of greater than 24 hours.

rat liver AII receptors = target: T1, rat liver AII receptors (Rattus norvegicus, UniProt P25095); assay: in vitro AII rat liver binding assay (displacement of 125I SARILE AII); settings: displacement of 125I SARILE AII from rat liver membranes; assay run with or without BSA; read-out: IC50 (concentration of compound which inhibits binding by 50%)
T1 construct: from tissue; host or cells: liver membranes (100,000 g pellet) of male Sprague-Dawley rats
T1 sequence (P25095 1-359): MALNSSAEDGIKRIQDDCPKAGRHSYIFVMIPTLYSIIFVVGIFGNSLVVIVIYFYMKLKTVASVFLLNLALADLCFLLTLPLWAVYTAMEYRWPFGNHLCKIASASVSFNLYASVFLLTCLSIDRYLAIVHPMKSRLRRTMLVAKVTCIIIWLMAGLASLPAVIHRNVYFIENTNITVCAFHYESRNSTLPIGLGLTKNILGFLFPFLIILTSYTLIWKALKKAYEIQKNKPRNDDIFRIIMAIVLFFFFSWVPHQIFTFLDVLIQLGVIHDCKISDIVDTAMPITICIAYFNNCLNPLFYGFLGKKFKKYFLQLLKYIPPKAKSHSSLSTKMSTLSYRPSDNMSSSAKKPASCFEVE
Experimental: The compound of the present invention is readily adapted to clinical use as a modulator of AII action at the AII receptor. The ability of the compound to modulate AII action was determined by an in vitro AII rat liver binding assay which measures its ability to displace ^125 I sarcosine-1, isoleucine-8, angiotensin II (SARILE AII, obtained from New England Nuclear) from rat liver AII receptors. For this assay, the following materials are used.
Homogenation buffer (10 mM Tris, 0.2M sucrose, 1.0 mM EDTA), prepared using 1.21 g Tris base, […] sucrose and 336 mg EDTA in 1000 ml water, adjusted to pH 7.4 using HCl.
Buffer A (50 mM Tris, 5 mM MgCl2), prepared using 6.05 g Tris base and 1.02 g MgCl2.6H2 O in 1000 ml water.
Assay buffer, prepared using 200 ml Buffer A and 0.5 g BSA. […]
The compound being tested is made up to an initial concentration of 2 mM in 100% DMSO. […] The filters are cut, placed in test tubes and counted on a Gamma Counter. The mean for all triplicate points are calculated and total specific binding is calculated by subtracting nonspecific counts from total counts. Binding in the presence of compound (COUNTS) is calculated by subtracting nonspecific counts from counts in the presence of compound. Percent binding of SARILE All in the presence of compound is calculated by dividing COUNTS by total specific counts. […]

- pIC50 (rat liver AII receptors): > 7.00
SMILES: CCc1nc2c(C)cc(C)nc2n1Cc1ccc(C2(C(=O)O)CC=CC2)cc1 [Example 1, 1-[4'-(2"-ethyl-5",7"-dimethylimidazo[4,5-b]pyridin-3-yl)methylphenyl]cyclopent-3-ene-1-carboxylic acid]
- duration of action (lowering of mean arterial pressure) (mean arterial pressure): greater than 24 hours
